Where two headings read alike, the source gives them in different places.
Experiments:
[1] = system: Nrf2+/+ and −/− primary cortical neuronal cultures; assay: TUNEL staining of primary neuronal cultures treated with 3NP; type: cell-based, mouse; settings: 2 mM 3NP, visual inspection
Protocol: (§1) For primary cortical neuronal cultures, Nrf2+/− mice were bred and cultures were prepared from individual E15/16 embryos as previously described (Lee, J. M., et al., supra, 2003). Treatments were applied between day 3 and 5 in vitro. Immunostaining for β-III-tubulin and GFAP confirmed no difference in the ratio of neurons to astrocytes between genotypes (data not shown). HPAP+ cultures were prepared similarly. HPAP activity and histochemistry in primary cultures was measured as previously described (Johnson, D. A., et al., supra, 2002).
(§2) LDH release into medium was measured using the CytoTox96 Non-Radioactive Cytotoxicity Assay kit (Promega) according to the manufacturers instructions. LDH activity was measured on both media and lysed cells. After normalizing to non-treated wells, the percentage of LDH in the media was calculated. Each measurement was made in at least triplicate on separate cultures from three individual pups. Terminal deoxynucleotidyltransferase-mediated dUTP nick end labeling (TUNEL; Roche Applied Science) staining was also performed according to the manufacturers instructions on cultures from at least two different pups per genotype.
(§3) In order to examine the differential sensitivity of Nrf2−/− neurons to complex II inhibition, Nrf2+/+ and −/− primary cortical neuronal cultures (3 DIV) were treated with 3NP for 48 and assessed for LDH release. […]

[2] = system: Nrf2−/−, +/− or +/+ mice; assay: Striatal lesions after 3NP (Fluorojade-B, cresyl violet); type: in vivo, mouse
Protocol: (§4) Nrf2−/−, +/−, or +/+ mice received i.p. injections of 50 mg/kg 3NP or vehicle every 12 hours for a total of 7 injections. 25 mg/ml 3-NP in PBS was prepared fresh and adjusted to pH 7.4 with 10M NaOH. Individual doses were diluted so that injection volume remained constant at 200 μl. Six to eight hours after the last dose mice were sacrificed as below. One Nrf2 KO mouse died prior to the seventh dose and three others had severe symptoms that were classified as stage III according to Gabrielson, et al. (Gabrielson, K. L., et al., Am. J. Pathol. 159:1507-1520, 2001).
(§5) Mice were euthanized with CO2 and perfused with 4% paraformaldehyde. Tissues were post-fixed overnight at 4° C. and cryoprotected in 30% sucrose/PBS. Using a cryostat (Leica), adjacent coronal 20 μm and 50 μm sections were taken for staining with Fluorojade-B and cresyl violet respectively through the entire striatum. […] Lesion size was quantified using the Cavieleri Estimator (Stereoinvestigator; Microbrightfield) on sections 200 μm apart. HPAP histochemistry was measured as previously described (Johnson, D. A., et al., supra, 2002).
After mice were sacrificed, brains were stained with cresyl violet or Fluorojade-B (FIG. 3C). Lesions in Nrf2−/− mice were observable using both staining methods; however, they were more apparent in the fluorojade B-stained sections; these sections were used for lesion volume quantification (FIG. 3D).

[3] = system: Nrf2−/−, +/− or +/+ mice; assay: Rotarod performance after 3NP; type: in vivo, mouse; settings: Nrf2−/− mice versus 3NP-injected Nrf2+/+ and heterozygous mice, four hours after last dose, 5 rpm
Protocol: To assess sensorimotor deficits in 3NP-treated animals, mice were trained up to 5 times per day on the rotarod (Columbus Instruments) for three days prior to 3-NP administration (Fernagut, P. O., et al., Neuroscience 114:1005-1017, 2002). All mice were able to achieve 180 sec (5 rpm) on the first trial by day three. Rotarod function was measured prior to the first dose and following the last dose of 3-NP.
Four hours after the last dose, motor skills were assessed by rotarod performance. Up to three trials were given for each mouse and the longest time spent on the rotarod was used for analysis. All PBS-injected mice were able to maintain 5 rpm for 180 sec (the maximum time allowed).

[4] = system: Nrf2−/−, +/− or +/+ mice; assay: Systemic 3NP administration: phenotypic scoring, death and weight loss; type: in vivo, mouse
Protocol: as §4
We posited that this increased sensitivity would also extend to an in vivo model. 18 week-old mice were dosed every 12 hours with 50 mg/kg 3NP. After seven doses, a clear differential sensitivity had emerged based on the subjective classification described by Gabrielson, et al. (Gabrielson, K. L., et al., supra, 2001). […] No Nrf2+/+ or Nrf2+/− mice rated above stage 1.
Table 1: Phenotypic scoring of mice after 3NP administration. Nrf2+/+, Nrf2+/− and Nrf2−/− mice were scored Stage 0, I, II or III based on the development of clinical symptoms.

[5] = system: Nrf2+/+ and −/− primary cortical neuronal cultures; assay: LDH release cytotoxicity in primary neuronal cultures treated with 3NP; type: cell-based, mouse; settings: Nrf2−/− versus wild-type cultures, all doses, treated for 48
Protocol: as §1, §2, §3

[6] = system: antioxidant response element (ARE); assay: hPAP reporter activation after 3NP in ARE-hPAP primary neuronal cultures; type: cell-based, mouse; settings: ARE-hPAP+ primary cortical neuronal cultures, neurotoxic doses, 48 hours
Excerpt: Nrf2−/− and ARE-hPAP transgenic reporter mice were bred separately. Nrf2−/− mice were created by targeted disruption of the Nrf2 gene (Chan, K., et al., Proc. Natl. Acad. Sci. USA 93:13943-13948, 1996). ARE-hPAP reporter mice were created by insertion of a 51 basepair segment of rat NAD(P)H Quinone Oxidoreductase-1 promoter containing the core ARE into a minimal promoter upstream of the heat stable human Placental Alkaline Phosphatase (hPAP) (Johnson, D. A., et al., J. Neurochem. 81:1233-1241, 2002).
as §1
This activation was localized to the surviving astrocytes (FIG. 2B) as visualized by vector red staining and GFAP co-labeling.

[7] = system: antioxidant response element (ARE); assay: hPAP histochemistry after intrastriatal malonate in ARE-hPAP reporter mice; type: in vivo, mouse; settings: 48 hours after intrastriatal malonate
Protocol: (§6) Mice were anesthetized with isoflurane. […] One minute after insertion of the Hamilton syringe, the solution was administered over 2 minutes and the needle was withdrawn 2 mm per minute. ARE-hPAP+ mice were injected similarly with 0.25M (1 μl), due to differences in background strain sensitivity.
as §5
Malonate was injected intrastriatally into ARE-hPAP reporter mice. After 48 hours the mice were euthanized and hPAP histochemistry was performed. […] ARE-activated astrocytes, as visualized by GFAP immunohistochemistry, occur in a similar pattern (FIG. 5C).

[8] = system: Nrf2−/−, +/− and +/+ mice; settings: for Average lesion size: 0.5M malonate 1 μl intrastriatal, cresyl violet
Protocol: as §6, §5
Ten days post-injection mice were sacrified and lesion size was measured by cresyl violet staining (FIG. 4A).

[9] = Nrf2−/− mice, 50 mg/kg i.p. every 12 hours, 7 injections

O=C(O)CC[N+](=O)[O-] [3NP, 3-nitropropionic acid]
TUNEL-positive neurons ([1]; Nrf2+/+ neurons): significantly lower percentage
TUNEL-positive neurons ([1]; Nrf2−/− neurons): Nearly all
Mice with measurable lesions ([2]; Nrf2+/+ mice): No lesions
Mice with measurable lesions ([2]; Nrf2+/− mice): only one
Mice with measurable lesions ([2]; Nrf2−/− mice): Five of the eight
Rotarod function [3]: significantly reduced function
Mice scored Stage 0 ([4]; Nrf2+/+ mice, 50 mg/kg i.p. every 12 hours, 7 injections): 5
Mice scored Stage 0 ([4]; Nrf2+/− mice, 50 mg/kg i.p. every 12 hours, 7 injections): 4
Mice scored Stage 0 [4, 9]: 1
Mice scored Stage I [4, 9]: 3
Mice scored Stage II [4, 9]: 1
Weight loss, percent of starting weight ([4]; Nrf2−/− mice, after seven doses of 50 mg/kg): 12±1.9%
Death ([4]; Nrf2−/− mice, prior to the seventh dose of 50 mg/kg): one mouse died
LDH release [5]: greater in the Nrf2−/− cultures than in wild-type cultures
hPAP expression [6]: significantly increased

O=C(O)CC(=O)O [malonate]
hPAP activity [7]: present near the edges of the lesion
Average lesion size ([8]; Nrf2+/+ mice, ten days post-injection): 0.03±0.07 mm^3
Average lesion size ([8]; Nrf2+/− mice, ten days post-injection): 0.16±0.07 mm^3
Increase of average lesion size ([8]; Nrf2−/− versus Nrf2+/+ mice): over 21 fold
Increase of average lesion size ([8]; Nrf2−/− versus Nrf2+/− mice): 4 fold
Overt behavioral phenotype ([8]; all genotypes, ten days post-injection): None of the mice exhibited an overt behavioral phenotype
